Measured values from patent US9309298B2, “Anti-bacterial polypeptides and pathogen specific synthetic antibodies” (priority 2011, dated 2016).
Bridge positions count the residues as written; N and C are the ends. Square brackets hold non-standard residues; d marks the D form. Ends that are not written are not given here. I, II: the chains in the order shown. * marks the point of attachment. StBu = CC(C)(C)S*

Experiments:
P. aeruginosa = assay type: cell-based
S. mutans = assay type: cell-based
Staphylococcus aureus = experiment: Mutant library in vitro inhibition activity, S. aureus; assay type: cell-based; conditions: relative growth after 18 hours of co-incubation
Method: (§1) A library of 340 mutants of original lytic peptide (killing domain in synbody) was synthesized with single amino acid substitutions. Mutants along with original peptide as positive control were tested in vitro for inhibition activity against S. aureus and Pseudomonas aeruginosa. […] Ratio reflect the improvement in activity as “Mutant[Relative growth]/Orignal[Relative growth].

S. aureus [1] = experiment: Solution inhibition assay, S. aureus; assay type: cell-based; conditions: negative control synbody
Method: The advantage of the synbody “DR-RW” over the single peptides can be noticed in the range 10-25 uM.

B. subtilis = assay type: cell-based
[2] = In vivo characterization: immune response and acute toxicity in mice; design: species or system CD1 mice
Source text: FIG. 3. Graph of immune response cytoxicity data of a composition of the invention in CD1 mice.
(§2) GAL80 synbody was used as a negative control with no activity against S. aureus. […] Synbody was abbreviated as “SB”.

human cells = assay type: cell-based
Source text: FIG. 2. Graph of cytoxicity data of a composition of the invention in human tissue culture studies.
as §2

S. aureus [3] = assay type: cell-based
Pseudomonas aeruginosa = experiment: Mutant library in vitro inhibition activity, Pseudomonas aeruginosa; assay type: cell-based; conditions: relative growth after 18 hours of co-incubation
Method: as §1

| Substance | ratio, Mutant[Relative growth]/Orignal[Relative growth] (Staphylococcus aureus) | ratio, Mutant[Relative growth]/Orignal[Relative growth] (Pseudomonas aeruginosa) | also measured |
| --- | --- | --- | --- |
| DRIFHKMQHKPYKIKKRGSC |  |  | Avg MIC ± SD, PA (P. aeruginosa): >100 µM; Avg MIC ± SD, SM (S. mutans): >100 µM |
| FWRRHKHFKRPHRKHKR [Mut 14] | 1.653 |  |  |
| GAL80 synbody: synbody used as a negative control with no activity against S. aureus (peptide 1 GTEKGTSGWLKTGSC; peptide 2 EGEWTEGKLSLRGSC) |  |  | Activity against S. aureus (S. aureus [1]): no activity |
| I: DRIFHKMQHKPYKIKKRGSGGGKC(StBu)-NH2 / II: RWRRHKHFKRPHRKHKRGSG (amide I:23-II:C) [Synbody] |  |  | Avg MIC ± SD, PA (P. aeruginosa): 22 ± 1.8 µM; Avg MIC ± SD, SM (S. mutans): >100 µM; Avg MIC ± SD, BS (B. subtilis): 14 ± 1.1 µM; Acute toxicity ([2]; 500 ug dose): no immune response or acute toxicity; Immune response ([2]; 500 ug dose, FIG. 3): no immune response; Level of IgG, PBS versus synbody injected mice ([2]; FIG. 3): no difference detected; Cytotoxic activity (human cells): no cytotoxic activity; Avg MIC ± SD, SA (S. aureus [3]): 14 ± 0.8 µM |
| LWRRHKHFKRPHRKHKR [Mut 11] | 1.58 |  |  |
| PWRRHKHFKRPHRKHKR [Mut 15] | 1.658 |  |  |
| RLRRHKHFKRPHRKHKR [Mut 31] | 1.633 |  |  |
| RRRRHKHFKRPHRKHKR [Mut 22] | 6.1 | 2.073 |  |
| RWRFHKHFKRPHRKHKR [Mut 74] |  | 1.017 |  |
| RWRRAKHFKRPHRKHKR [Mut 81] | 1.525 |  |  |
| RWRRFKHFKRPHRKHKR [Mut 94] |  | 1.211 |  |
| RWRRHFHFKRPHRKHKR [Mut 114] |  | 10.95 |  |
| RWRRHGHFKRPHRKHKR [Mut 108] |  | 1.191 |  |
| RWRRHHHFKRPHRKHKR [Mut 109] |  | 1.395 |  |
| RWRRHIHFKRPHRKHKR [Mut 110] |  | 4.387 |  |
| RWRRHKAFKRPHRKHKR [Mut 121] |  | 2.297 |  |
| RWRRHKHFKRDHRKHKR [Mut 204] |  | 2.107 |  |
| RWRRHKHFKRFHRKHKR [Mut 214] |  | 1.134 |  |
| RWRRHKHFKRMHRKHKR [Mut 213] |  | 1.185 |  |
| RWRRHKHFKRPHRKHFR [Mut 314] | 1.497 |  |  |
| RWRRHKHFKRPHRKHKF [Mut 334] | 2.37 |  |  |
| RWRRHKHFKRPHRKHKK [Mut 332] | 2.438 |  |  |
| RWRRHKHFKRPHRKHKRGSC |  |  | Avg MIC ± SD, PA (P. aeruginosa): 27 ± 2.3 µM; Avg MIC ± SD, SM (S. mutans): >100 µM; Avg MIC ± SD, BS (B. subtilis): 20 ± 0.3 µM; Avg MIC ± SD, SA (S. aureus [3]): 28 ± 1.5 µM |

| Substance | ratio, Mutant[Relative growth]/Orignal[Relative growth] (Staphylococcus aureus) | ratio, Mutant[Relative growth]/Orignal[Relative growth] (Pseudomonas aeruginosa) | also measured |
| --- | --- | --- | --- |
| RWRRHKHFKRPHRKTKR [Mut 297] | 2.339 |  |  |
| RWRRHKHFKRPHRKVKR [Mut 300] | 1.453 |  |  |
| RWRRHKHFKRPYRKHKR [Mut 239] | 2.12 |  |  |
| RWRRHKHFKRRHRKHKR [Mut 202] |  | 1.3565 |  |
| RWRRHKHFRRPHRKHKR [Mut 162] | 2.125 |  |  |
| RWRRHKHKKRPHRKHKR [Mut 152] | 2.049 |  |  |
| RWRRHKHLKRPHRKHKR [Mut 151] | 1.312 |  |  |
| RWRRHKHMKRPHRKHKR [Mut 153] | 2.293 |  |  |
| RWRRHKHPKRPHRKHKR [Mut 155] | 2.359 |  |  |
| RWRRHKRFKRPHRKHKR [Mut 122] | 17.45 | 3.121 |  |
| RWRRHKVFKRPHRKHKR [Mut 140] | 1.658 |  |  |
| RWRRHKWFKRPHRKHKR [Mut 138] |  | 1.315 |  |
| RWRRHKYFKRPHRKHKR [Mut 139] | 2.136 | 1.164 |  |
| RWRRHKd-KFKRPHRKHKR (RWRRHK[dK]FKRPHRKHKR) [Mut 125] | 1.593 |  |  |
| RWRRHLHFKRPHRKHKR [Mut 111] |  | 1.71 |  |
| RWRRHRHFKRPHRKHKR [Mut 102] |  | 1.077 |  |
| RWRRHVHFKRPHRKHKR [Mut 120] |  | 3.684 |  |
| RWRRIKHFKRPHRKHKR [Mut 90] | 1.747 |  |  |
| RWRRMKHFKRPHRKHKR [Mut 93] |  | 1.035 |  |
| RWRRNKHFKRPHRKHKR [Mut 83] | 13.15 |  |  |
| RWRRPKHFKRPHRKHKR [Mut 95] | 9.077 |  |  |
| RWRRWKHFKRPHRKHKR [Mut 98] |  | 1.183 |  |
| d-KWRRHKHFKRPHRKHKR ([dK]WRRHKHFKRPHRKHKR; not fully specified (some residues)) [Mut 5] | 1.308 |  |  |
